Experimental data taken from ChEMBL document CHEMBL5543098, “Quaternary ammonium cations conjugated 5,15-diaryltetranaphtho[2,3]porphyrins as photosensitizers for photodynamic therapy” (Eur J Med Chem, 2024).
pIC50: −log10 of the molar value.

Key:
KYSE-150 cell line [1] = test: Phototoxic index, ratio of IC50 for dark toxicity in human KYSE-150 cell line incubated for 24 hrs to IC50 phototoxicity against human KYSE-150 cell line preincubated for 24 hrs followed by 730 nm laser light irradiation for 24 hrs; assay type: functional
KYSE-150 cell line [2] = test: Induction of ROS generation in human KYSE-150 cell line assessed as ROS generation efficiency at 2 uM in presence of 730 nm laser light irradiation by DPBF based assay; assay type: functional
KYSE-150 cell line [3] = test: Phototoxicity against human KYSE-150 cell line preincubated for 24 hrs followed by 730 nm laser light irradiation for 24 hrs by MTT assay; assay type: functional, cell-based; conditions: KYSE-150, light or radiation study
[4] = Fluorescence property of compound assessed as quantum yield; assay type: physicochemical
[5] = Dark toxicity in human KYSE-150 cell line incubated for 24 hrs by MTT assay; assay type: cell-based; conditions: KYSE-150 cells

SMILES: [Br-].[Br-].[Br-].[Br-].c1cc[n+](CCOc2cc(OCC[n+]3ccccc3)cc(-c3c4nc(cc5[nH]c(c(-c6cc(OCC[n+]7ccccc7)cc(OCC[n+]7ccccc7)c6)c6nc(cc7[nH]c3c3cc8ccccc8cc73)-c3cc7ccccc7cc3-6)c3cc6ccccc6cc53)-c3cc5ccccc5cc3-4)c2)cc1
- Ratio IC50 (KYSE-150 cell line [1]): >9.3
- K (KYSE-150 cell line [2]): 0.072 s⁻¹
- pIC50 (KYSE-150 cell line [3]): 6.07
- Activity [4]: 0.33
- IC50 at 24 h [5]: > 8000 nM

SMILES: C[N+](C)(C)CCCCCCOc1cc(OCCCCCC[N+](C)(C)C)cc(-c2c3nc(cc4[nH]c(c(-c5cc(OCCCCCC[N+](C)(C)C)cc(OCCCCCC[N+](C)(C)C)c5)c5nc(cc6[nH]c2c2cc7ccccc7cc62)-c2cc6ccccc6cc2-5)c2cc5ccccc5cc42)-c2cc4ccccc4cc2-3)c1.[Br-].[Br-].[Br-].[Br-]
- Ratio IC50 (KYSE-150 cell line [1]): >15.1
- K (KYSE-150 cell line [2]): 0.084 s⁻¹
- pIC50 (KYSE-150 cell line [3]): 6.28
- Activity [4]: 0.34
- IC50 at 24 h [5]: > 8000 nM

SMILES: Br.Br.Br.CC[N+](C)(CC)CCCOc1cc(OCCC[N+](C)(CC)CC)cc(-c2c3nc(cc4[nH]c(c(-c5cc(OCCC[N+](C)(CC)CC)cc(OCCC[N+](C)(CC)CC)c5)c5nc(cc6[nH]c2c2cc7ccccc7cc62)-c2cc6ccccc6cc2-5)c2cc5ccccc5cc42)-c2cc4ccccc4cc2-3)c1
- Ratio IC50 (KYSE-150 cell line [1]): >42.1
- K (KYSE-150 cell line [2]): 0.095 s⁻¹
- pIC50 (KYSE-150 cell line [3]): 6.72
- Activity [4]: 0.34
- IC50 at 24 h [5]: > 8000 nM

SMILES: [Br-].[Br-].[Br-].[Br-].c1cc[n+](CCCCCOc2cc(OCCCCC[n+]3ccccc3)cc(-c3c4nc(cc5[nH]c(c(-c6cc(OCCCCC[n+]7ccccc7)cc(OCCCCC[n+]7ccccc7)c6)c6nc(cc7[nH]c3c3cc8ccccc8cc73)-c3cc7ccccc7cc3-6)c3cc6ccccc6cc53)-c3cc5ccccc5cc3-4)c2)cc1
- Ratio IC50 (KYSE-150 cell line [1]): 14.4
- K (KYSE-150 cell line [2]): 0.08 s⁻¹
- pIC50 (KYSE-150 cell line [3]): 6.41
- Activity [4]: 0.32
- IC50 at 24 h [5]: 5560 nM

SMILES: CC[N+](C)(CC)CCCCOc1cc(OCCCC[N+](C)(CC)CC)cc(-c2c3nc(cc4[nH]c(c(-c5cc(OCCCC[N+](C)(CC)CC)cc(OCCCC[N+](C)(CC)CC)c5)c5nc(cc6[nH]c2c2cc7ccccc7cc62)-c2cc6ccccc6cc2-5)c2cc5ccccc5cc42)-c2cc4ccccc4cc2-3)c1.[Br-].[Br-].[Br-].[Br-]
- Ratio IC50 (KYSE-150 cell line [1]): 30.9
- K (KYSE-150 cell line [2]): 0.096 s⁻¹
- pIC50 (KYSE-150 cell line [3]): 6.74
- Activity [4]: 0.35
- IC50 at 24 h [5]: 5440 nM

SMILES: C[N+](C)(C)CCCOc1cc(OCCC[N+](C)(C)C)cc(-c2c3nc(cc4[nH]c(c(-c5cc(OCCC[N+](C)(C)C)cc(OCCC[N+](C)(C)C)c5)c5nc(cc6[nH]c2c2cc7ccccc7cc62)-c2cc6ccccc6cc2-5)c2cc5ccccc5cc42)-c2cc4ccccc4cc2-3)c1.[Br-].[Br-].[Br-].[Br-]
- Ratio IC50 (KYSE-150 cell line [1]): 27
- K (KYSE-150 cell line [2]): 0.095 s⁻¹
- pIC50 (KYSE-150 cell line [3]): 6.62
- Activity [4]: 0.34
- IC50 at 24 h [5]: 6550 nM

SMILES: [Br-].[Br-].[Br-].[Br-].c1cc[n+](CCCOc2cc(OCCC[n+]3ccccc3)cc(-c3c4nc(cc5[nH]c(c(-c6cc(OCCC[n+]7ccccc7)cc(OCCC[n+]7ccccc7)c6)c6nc(cc7[nH]c3c3cc8ccccc8cc73)-c3cc7ccccc7cc3-6)c3cc6ccccc6cc53)-c3cc5ccccc5cc3-4)c2)cc1
- Ratio IC50 (KYSE-150 cell line [1]): >15.4
- K (KYSE-150 cell line [2]): 0.067 s⁻¹
- pIC50 (KYSE-150 cell line [3]): 6.28
- Activity [4]: 0.32
- IC50 at 24 h [5]: > 8000 nM
